Entries after “also recorded” stand apart in the source; their conditions may differ.
How the values were obtained:
[1] = system: IL1β (interleukin 1 beta); assay: Inhibition of LPS-induced synthesis and liberation of cellular IL1β in human mononuclear cells (sandwich enzyme immuno test of supernatant); assay type: cell-based; settings: for activity at 10 µM: concentration 0.01 mmol/l; for activity at 100 µM: concentration 0.1 mmol/l; for inhibitory effect on the synthesis and liberation of cytokines from human blood cells / effect on the IL1β level: in words; for effect on the IL1β level: human mononuclear cells, LPS-induced
Experimental: 10 ml of freshly prepared human citrate blood were carefully underlaid with 15 ml of Lymphoprep® (Molter GmbH, Heidelberg) and then centrifuged at 400×g for 40 min. at 20° C. The cell fraction which was visible as a white ring at the phase boundary was withdrawn with the aid of a syringe, diluted 1:1 (v/v) with PM-16 buffer (from Serva Feinbiochemica GmbH & Co. KG, Heidelberg) and then centrifuged, as above, for 10 min. […] Using a cell counter (type IT, from Coulter Diagnostics, Krefeld), the cell suspension, which is composed of about 90% lymphocytes and 10% monocytes, was adjusted to about 5 million cells/ml. Cell viability was monitored before and after the inhibition experiments using the known lactate dehydrogenase method.
The synthesis and liberation of cellular IL1β was induced by adding a solution of 500 ng of lipopolysaccharide (Salmonella abortus equi, Sigma GmbH, Deisenhofen) in 0.01 ml of dimethyl sulfoxide/water (1:10, v/v) to 0.48 ml of the above-described cell fraction. At the same time, a solution of leflunomide or leflunomide metabolite in 0.01 ml of dimethyl sulfoxide (for the final concentration in each case, see Tab. 1) was added to the cell fraction and the mixture was left at 37° C. for 20 h in a commercially available incubator. After cooling down to 0° C., the samples were centrifuged for 1 min. in a bench centrifuge and in each case 0.025 ml aliquots of the supernatant were examined for their IL1β content using a "sandwich" enzyme-immuno test kit (from Biermann GmbH, Bad Nauheim) in accordance with the manufacturer's instructions. The control values were determined without the addition of leflunomide or metabolite and set at 100%.

[2] = Metabolism of leflunomide in the mononuclear cell test sample (HPLC, time-dependent); assay type: in vitro ADME, human; settings: human, mononuclear cells; mononuclear cell test sample, 37° C., HPLC
[3] = system: isolated blood cell fraction (mononuclear cells); assay: as above; assay type: in vitro ADME, human; settings: in words; isolated blood cell fraction (mononuclear cells)
NMRI mouse = assay: Acute toxicity following intraperitoneal administration, NMRI mice; assay type: in vivo; settings: after 3 weeks, Litchfield and Wilcoxon, 30240 min
Experimental: (§1) The acute toxicity following intraperitoneal administration of the test substance was carried out using NMRI mice (20 to 25 g) and SD rats (120 to 195 g). The test substance was suspended in a 1% strength solution of sodium carboxymethyl cellulose. The different doses of the test substance were administered to the mice in a volume of 10 ml/kg of body weight and to the rats in a volume of 5 ml/kg of body weight. 10 animals were used per dose. After 3 weeks, the acute toxicity was determined by the method of Litchfield and Wilcoxon.

SD rat = assay: Acute toxicity following intraperitoneal administration, SD rats; assay type: in vivo; settings: after 3 weeks, Litchfield and Wilcoxon, 30240 min
Experimental: as §1

[4] = Homo sapiens, control without addition = 100%, +/- standard deviation, 20 h, 37° C., LPS 500 ng

Row | Structure (SMILES) | activity at 0.1 µM ([1]; Homo sapiens, concentration 0.0001 mmol/l, control without addition = 100%, +/- standard deviation, 20 h, 37° C., LPS 500 ng) [%] | activity at 5 µM ([1]; Homo sapiens, concentration 0.005 mmol/l, control without addition = 100%, n = 2, deviation not given, 20 h, 37° C., LPS 500 ng) [%] | activity at 10 µM [1, 4] [%] | activity at 50 µM ([1]; Homo sapiens, concentration 0.05 mmol/l, control without addition = 100%, +/- standard deviation, 20 h, 37° C., LPS 500 ng) [%] | activity at 100 µM [1, 4] [%] | inhibitory effect on the synthesis and liberation of cytokines from human blood cells [1] | effect on the IL1β level [1] | half-life [2] [h] | metabolism of leflunomide under the experimental conditions [3] | acute toxicity intraperitoneally LD50 (NMRI mouse) | acute toxicity intraperitoneally LD50 (SD rat)
1 | Cc1oncc1C(=O)Nc1ccc(C(F)(F)F)cc1 [Leflunomide, N-(4-trifluoromethylphenyl)-5-methylisoxazole-4-carboxamide] | 86 ± 11 | 68 | 70 ± 8 | 27 ± 6 | 17 ± 4 | strong inhibitory effect | clearly lowered | ~10 | did not, to any appreciable extent, metabolize the leflunomide to its metabolites; also recorded: metabolized only very slowly; also recorded: no appreciable metabolism | 185 (163-210) mg/kg | 170 (153-189) mg/kg
2 | C/C(O)=C(\C#N)C(=O)Nc1ccc(C(F)(F)F)cc1 [Leflunomide metabolite, N-(4-trifluoromethylphenyl)-2-cyano-3-hydroxycrotonamide] |  |  | 100 ± 3 |  | 99 ± 12 | does not exhibit this advantageous effect | practically no effect on the IL1β level |  |  |  | 

Source: US5556870A, “Use of leflunomide for inhibiting interleukin 1 beta” (priority 1993, dated 1996)
